Active and inactive are the calls of the source. The rule behind the calls is not given here.
Legend:
[1] = Inhibition of HSV type-2 DNA polymerase after 30 mins by liquid scintillation counting analysis in presence of dATP, dCTP, dGTP and [3H]-TTP; design: species or system Human alphaherpesvirus 2
[2] = system: Human alphaherpesvirus 2; assay: Antiviral activity against Human herpesvirus 2 infected in CF mouse assessed as suppression of virus-induced dermatitis administered topically as 2% aqueous solution twice daily for 6 days measured after day 17; type: functional, organism-based
[3] = system: Human alphaherpesvirus 2; assay: Antiviral activity against Human herpesvirus 2 infected in CF mouse assessed as suppression of virus-induced dermatitis at 100 to 1000 mg/kg/day, po administered for 6 days measured after day 17; type: functional, organism-based
[4] = system: Human alphaherpesvirus 2; assay: Antiviral activity against Human herpesvirus 2 infected in CF mouse assessed as suppression of virus-induced dermatitis at 800 mg/kg/day, po administered for 6 days measured after day 17; type: functional, organism-based

Structure (SMILES) | I50 [1] [µg/mL] | Activity [2] | Activity [3] | Activity [4]
CCCOC(=O)CP(=O)(O)O | 0.16 | Active | Active | –
O=C(O)CP(=O)([O-])[O-].[Na+].[Na+] [DISODIUM CARBOXYMETHYLPHOSPHONATE] | 0.22 | – | – | –
CCCOP(=O)(O)CC(=O)O | 200 | – | – | –
COP(=O)(O)CC(=O)O | 19.9 | – | – | –
O=C(CP(=O)(O)O)OC1CCCCC1 | 49 | – | – | –
O=C(O)CP(=O)(O)c1ccccc1 | 200 | inactive | – | inactive
CCCCCCOP(=O)(O)CC(=O)O | – | Active | – | Active
CC(C)(C)OC(=O)CP(=O)(O)O | 3.9 | – | – | –
O=C(CP(=O)(O)O)OCc1ccccc1 | 40 | – | – | –
CCCCCCCCOC(=O)CP(=O)(O)O | 0.26 | – | – | –
CP(=O)(O)CC(=O)O | 145 | inactive | – | –
COc1ccc(P(=O)(O)CC(=O)O)cc1 | 150 | inactive | – | inactive
